According to PMC11173765 (Molecules, 2024):
Several values for one entry are separate records, joined by “and”; a condition that tells them apart may be missing. Equal entries are not always repeated. Where two headings read alike, the source gives them in different places.

Experiments:
[1] = target: T1, S1R (Rattus norvegicus, UniProt Q9R0C9); test: S1R radioligand binding assay ([3H]-pentazocine, rat liver homogenates); details: for SR subtype preference: in words, from S1R and S2R binding affinities; for S2R/S1R: selectivity ratio Ki S2R / Ki S1R
T1 construct: liver homogenates (250 μg/sample) from male Sprague Dawley rats; from tissue; host or cells: liver homogenate of male Sprague Dawley rats
T1 sequence (Q9R0C9 whole entry): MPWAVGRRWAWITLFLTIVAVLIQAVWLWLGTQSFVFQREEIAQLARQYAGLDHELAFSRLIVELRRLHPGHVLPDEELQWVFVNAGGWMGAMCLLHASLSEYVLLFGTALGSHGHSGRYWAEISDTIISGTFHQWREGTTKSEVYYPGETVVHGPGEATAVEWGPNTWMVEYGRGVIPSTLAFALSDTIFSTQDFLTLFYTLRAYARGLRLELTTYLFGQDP
Procedure: (§1) The S1R and S2R receptor affinities of the test compounds were evaluated in competition tests by radiometric assays.
(§2) Liver homogenates were prepared from Sprague Dawley rats (ENVIGO RMS S.R.L., Udine, Italy) for both S1R and S2R receptor binding assays. […] An Ultima Gold MV Scintillation cocktail was sourced from PerkinElmer (Milan, Italy). Other materials were obtained from Merck Life Science S.r.l. (Milan, Italy). For each compound, a10 mM DMSO stock solution was obtained. From these, diluted test concentrations ranging from 10^−5 M to 10^−11 M wereprepared using the respective assay buffer. Both assays involve the use of a tris buffer (50 mM, pH 8) and liver homogenates (250 μg/sample) from male Sprague Dawley rats. […] The final volume was 0.5 mL [54]. A millipore filter apparatus was employed to separate bound and free radioligands via filtration under conditions of reduced pressure through Whatman GF 6 glass fiber filters. Each filter paper was washed three times with 2 mL of ice-cold tris buffer (50 mM for S1R, 10 mM for S2R; pH 8.0), dried at room temperature, and incubated overnight with 2 mL of Ultima Gold MV Scintillation cocktail in pony vials. Bound radioactivity was determined using a liquid scintillation counter Beckman LS 6500 (Beckman Coulter Diagnostic, Brea, CA, USA. […]

[2] = target: T2, S2R (Rattus norvegicus, UniProt Q5U3Y7); test: S2R radioligand binding assay ([3H]-DTG with (+)-pentazocine mask, rat liver homogenates); details: for Ki: [3H]-DTG 2 nM, (+)-pentazocine 5 μM mask, rat liver homogenates, mean ± SEM; for S1R/S2R: selectivity ratio Ki S1R / Ki S2R
T2 construct: liver homogenates (250 μg/sample) from male Sprague Dawley rats; from tissue; host or cells: liver homogenate of male Sprague Dawley rats
T2 sequence (Q5U3Y7 1-176): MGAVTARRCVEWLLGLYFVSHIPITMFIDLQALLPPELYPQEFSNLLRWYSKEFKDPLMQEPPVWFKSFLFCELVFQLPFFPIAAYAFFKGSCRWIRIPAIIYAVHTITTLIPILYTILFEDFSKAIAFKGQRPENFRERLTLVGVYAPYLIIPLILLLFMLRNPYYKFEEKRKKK
Procedure: as §1, §2

[3] = tested on: HUH-7; test: Cytotoxicity, resazurin viability assay in HUH-7 cells; format: cell-based; details: Homo sapiens, 48 hrs treatment, mean ± SEM
Procedure: (§3) Cytotoxic potency was measured using a resazurin assay (see Supplementary Materials). Cells were treated with increasing concentrations of each compound for 48 hours before the cell viability was assessed (Supplementary Materials).
(§4) Dulbecco’s modified Eagle medium (DMEM; Gibco, Life Technologies, Grand Island, NY, USA), supplemented with 10% (v/v) of fetal bovine serum (FBS) and Antibiotic Antimycotic Solution (100 U penicillin, 100 μg/mL streptomycin and 0.25 μg/mL amphotericin B; Sigma-Aldrich, St. Louis, MO, USA), was used to culture the human cell lines SH-SY5Y [55] (neuroblastoma, ATCC, CRL-2266) and HUH-7 [56] (hepatocarcinoma, Japanese Cancer Research Resources Bank, National Institutes of Biomedical Innovation, Health and Nutrition, NIBIOHN, JCRB0403).
(§5) Cell viability was evaluated using resazurin (SERVA Electrophoresis GmbH, Heidelberg, Germany) as previously described.
(§6) Briefly, a resazurin stock solution (440 μM, 10× in phosphate-buffered saline) was diluted in a culture medium to prepare a 44 μM working solution. Cells (5 × 10^3) were seeded in 96-well plates, incubated with 100µl of resazurin working solution, and fluorescence was measured after 1, 2, and 3 hrs. The background fluorescence of killed cells was subtracted, and viability was calculated relative to control cells treated with DMSO solvent (1%). The fluorescence was measured using an Envision 2104 Multi-label Microplate Reader (Perkin Elmer, Boston, MA, USA) and by setting the excitation wavelength at λ = 530 nm and emission wavelength at λ = 590 nm. Measurements were performed at a time of 0 and after 1 hour of incubation. Cytotoxicity was calculated as 100% minus the percentage of viability.
(§7) Statistical analysis was carried out with GraphPad Prism® 6.0 software. An unpaired t-test was used to compare treated and control cells, with p < 0.05 considered statistically significant. The half-maximal inhibitory concentration (IC50) values for cytotoxicity were determined by analyzing dose-response curves using GraphPad Prism software.

[4] = tested on: SH-SY5Y; test: Cytotoxicity, resazurin viability assay in SH-SY5Y cells; format: cell-based; details: Homo sapiens, 48 hrs treatment, mean ± SEM
Procedure: as §3, §4, §5, §6, §7

[5] = target: S2R; details: read-out: Ki S2R; siramesine literature value; cited from earlier work
[6] = target: S1R; details: read-out: Ki S1R; siramesine literature value; cited from earlier work
[7] = [3H]-pentazocine 2 nM, rat liver homogenates, mean ± SEM, read-out: Ki S1R

Compound: O=C(CCCN1CCCN(Cc2ccccc2)CC1)c1ccc(F)cc1 [4a, 4-(4-Benzyl-1,4-diazepan-1-yl)-1-(4-fluorophenyl)butan-1-one]
- Ki [1, 7]: 21.6 ± 3.44 nM
- SR subtype preference [1]: preference for the S1R subtype
- S2R/S1R [1]: 10
- Ki ([2]; read-out: Ki S2R): 210 ± 21.4 nM

Compound: COc1cc2c(cc1OC)CN(CCCC(=O)c1ccc(F)cc1)CC2 [4e, 4-(6,7-Dimetoxy-3,4-dihydroisoquinolin-2(1H)-yl)-1-(4-fluorophenyl)butan-1-one]
- IC50 [3]: 40000 ± 5000 nM
- Ki [1, 7]: 1660 ± 118 nM
- SR subtype preference [1]: preference for S2R
- S2R/S1R [1]: 0.004
- IC50 [4]: 120000 ± 13000 nM
- Ki ([2]; read-out: Ki S2R): 6.93 ± 0.76 nM
- S1R/S2R [2]: 241

Compound: Cc1ccc(CN(C)CCCC(=O)c2ccc(F)cc2)c(C)c1 [4h, 4-((2,4-Dimethylbenzyl)(methyl)amino)-1-(4-fluorophenyl)butan-1-one]
- Ki [1, 7]: 59.7 ± 7.6 nM
- SR subtype preference [1]: preference for S2R
- S2R/S1R [1]: 0.46
- Ki ([2]; read-out: Ki S2R): 27.7 ± 3.03 nM
- S1R/S2R [2]: 2.1

Compound: O=C(CCCN1CCN(c2ccc(F)cc2)CC1)c1ccc(F)cc1 [4f, 1-(4-Fluorophenyl)-4-(4-(4-fluorophenyl)piperazin-1-yl)butan-1-one]
- Ki [1, 7]: 70.2 ± 23.2 nM
- SR subtype preference [1]: preference for S2R
- S2R/S1R [1]: 0.23
- Ki ([2]; read-out: Ki S2R): 16.4 ± 3.17 nM
- S1R/S2R [2]: 4.3
- melting point: 94 to 95 °C

Compound: COc1ccc(CC2CCN(CCCC(=O)c3ccc(F)cc3)CC2)cc1OC [4j, 4-(4-(3,4-Dimetoxybenzyl)piperidin-1-yl)-1-(4-fluorophenyl)butan-1-one]
- IC50 [3]: 37000 ± 6000 nM
- Ki [1, 7]: 6.1 ± 0.58 nM
- SR subtype preference [1]: preference for the S1R subtype
- S2R/S1R [1]: 25
- IC50 [4]: 58000 ± 7000 nM
- Ki ([2]; read-out: Ki S2R): 153 ± 30.3 nM
- S1R/S2R [2]: 0.04

Compound: Fc1ccc(-n2cc(CCCCN3CCC4(CC3)OCc3ccccc34)c3ccccc32)cc1 [SRM, siramesine, reference compound]
- IC50 [3]: 2000 ± 250 nM
- S2R/S1R [1]: 1.2
- Ki [5]: 12.6 ± 0.1 nM
- IC50 [4]: 5000 ± 1000 nM
- S1R/S2R [2]: 0.8
- Ki [6]: 10.5 ± 2.6 nM

Compound: O=C(CCCN1CCN(C2CCCCC2)CC1)c1ccc(F)cc1 [4d, 4-(4-Cyclohexylpiperazin-1-yl)-1-(4-fluorophenyl)butan-1-one]
- IC50 [3]: 163000 ± 18000 nM
- Ki [1, 7]: 18.8 ± 2.91 nM
- SR subtype preference [1]: dual SR affinity
- S2R/S1R [1]: 0.7
- Ki ([2]; read-out: Ki S2R): 13.2 ± 2.78 nM
- S1R/S2R [2]: 1.4
- melting point: 198 to 200 °C

Compound: O=C(CCCN1CCC2(CC1)OCc1ccccc12)c1ccc(F)cc1 [4g, 1-(4-Fluorophenyl)-4-(3H-spiro[isobenzofuran-1,4′-piperidin]-1′-yl)butan-1-one]
- IC50 [3]: 16000 ± 2000 nM
- Ki [1]: 6.3 ± 1.4 nM
- SR subtype preference [1]: dual SR affinity
- S2R/S1R [1]: 1.46
- IC50 [4]: 57000 ± 6000 nM
- Ki ([2]; Ki S2R): 9.2 nM and 9.23 nM
- S1R/S2R [2]: 0.7
- melting point: 88 to 90 °C

Compound: O=C(CCCN1CCc2ccccc2C1)c1ccc(F)cc1 [4b, 4-(3,4-Dihydroisoquinolin-2(1H)-yl)-1-(4-fluorophenyl)butan-1-one]
- Ki [1, 7]: 44.5 ± 7.39 nM
- SR subtype preference [1]: preference for the S1R subtype
- S2R/S1R [1]: 2.8
- Ki ([2]; read-out: Ki S2R): 124 ± 16.3 nM
- S1R/S2R [2]: 0.35
- melting point: 45 to 47 °C

Compound: O=C(CCCN1CCC(c2ccncc2)CC1)c1ccc(F)cc1 [4i, 1-(4-Fluorophenyl)-4-(4-(pyridin-4-yl)piperidin-1-yl)butan-1-one]
- Ki [1, 7]: 13.9 ± 3.11 nM
- SR subtype preference [1]: preference for the S1R subtype
- S2R/S1R [1]: 2.03
- Ki ([2]; read-out: Ki S2R): 28.3 ± 3.33 nM
- S1R/S2R [2]: 0.5
- melting point: 102 to 104 °C

Compound: COc1ccc(CN(C)CCCC(=O)c2ccc(F)cc2)cc1OC [4c, 4-((3,4-Dimethoxybenzyl)(methyl)-amino)-1-(4-fluorophenyl)butan-1-one]
- Ki [1, 7]: 301 ± 74.7 nM
- SR subtype preference [1]: preference for S2R
- S2R/S1R [1]: 0.5
- Ki ([2]; read-out: Ki S2R): 148 ± 10.3 nM
- S1R/S2R [2]: 2.0
